Measurements: patent publication US20080280879A1, “SUBSTITUTED HETEROCYCLIC DERIVATIVES AND THEIR PHARMACEUTICAL USE AND COMPOSITIONS” (priority 2007, published 2008)
Converted amounts (≈) assume the structure as drawn.

How the values were obtained:
Format in all cases: cell-based, Staphylococcus aureus
[1] = test system: Staph aureus 1146; assay: MIC in Mueller-Hinton Broth with 50% pooled inactivated human serum, Assay 1, Table 12; details: for MIC: Staphylococcus aureus, 1146, Staph aureus 1146, Assay 1, 50% human serum, read-out: MIC, column C; for MIC, column C: Staph aureus 1146, Assay 1, 50% human serum
Procedure, shortened: (§1)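 Staphylococcus aureus susceptibility is measured by CLSI M7-A7 broth microdilution in microtiter trays. For serum testing, bacteria are inoculated into Mueller-Hinton Broth containing 50% pooled inactivated human serum. The MIC in μg/ml is the lowest concentration preventing visible growth.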

[2] = test system: Staph aureus 2811; assay: MIC, microtiter broth dilution (CLSI M7-A7), Assay 1, Table 12 column D, no serum; details: for MIC: Staphylococcus aureus, 2811, Staph aureus 2811, Assay 1, no serum; for MIC, column D: Staph aureus 2811, Assay 1, no serum
Procedure, shortened: as §1

[3] = test system: Staph aureus 1095 MRSA; assay: MIC, microtiter broth dilution (CLSI M7-A7), Assay 1, Table 12 column A, no serum; details: Assay 1, no serum; for MIC: Staphylococcus aureus, MRSA
Procedure, shortened: as §1

[4] = test system: Staph aureus 1146; assay: MIC, microtiter broth dilution (CLSI M7-A7), Assay 1, Table 12 column B, no serum; details: for MIC: Staphylococcus aureus, 1146, Staph aureus 1146, Assay 1, no serum; for MIC, column B: Staph aureus 1146, Assay 1, no serum
Procedure, shortened: as §1

[5] = test system: Staph aureus 2812; assay: MIC, microtiter broth dilution (CLSI M7-A7), Assay 1, Table 12 column E, no serum; details: for MIC: Staphylococcus aureus, 2812, Staph aureus 2812, Assay 1, no serum; for MIC, column E: Staph aureus 2812, Assay 1, no serum
Procedure, shortened: as §1

COc1ccc2ncc(Cl)c(C(O)CCC3(C(=O)O)CCN(C4CC(c5c(F)cccc5F)C4)C3)c2c1 (centres unmarked) [Example 176, 3-[3-(3-chloro-6-methoxyquinolin-4-yl)-3-hydroxypropyl]-1-[3-(2,6-difluorophenyl)cyclobutyl] pyrrolidine-3-carboxylic acid]
MIC [1]: 4 µg/mL (≈ 7.53 µM)
MIC [2]: < 0.0625 µg/mL
MIC [3]: 0.125 µg/mL (≈ 0.235 µM)
MIC [4]: < 0.0625 µg/mL
MIC [5]: < 0.0625 µg/mL

COc1ccc2ncc(Cl)c(CCCC3(C(=O)O)CCN(C4CC(c5cc(F)ccc5F)C4)C3)c2c1 (centres unmarked) [Example 207, 3-[3-(3-chloro-6-methoxyquinolin-4-yl)propyl]-1-[3-(2,5-difluorophenyl)cyclobutyl] pyrrolidine-3-carboxylic acid]
MIC [1]: 64 µg/mL (≈ 124 µM)
MIC [2]: < 0.0625 µg/mL
MIC [3]: < 0.0625 µg/mL
MIC [4]: < 0.0625 µg/mL
MIC [5]: < 0.0625 µg/mL

COc1ccc2nccc([C@@H](O)CC[C@@H]3CCN(C4CC(c5c(F)ccc(Cl)c5F)C4)C[C@@H]3C(=O)O)c2c1 (stereo partly drawn) [Example 68, (3R,4R)-1-[3-(3-chloro-2,6-difluorophenyl)cyclobutyl]-4-[(3S)-3-hydroxy-3-(6-methoxyquinolin-4-yl)propyl]piperidine-3-carboxylic acid]
MIC [1]: 4 µg/mL (≈ 7.34 µM)
MIC [2]: ≤ 0.0625 µg/mL
MIC [3]: 0.25 µg/mL (≈ 0.459 µM)
MIC [4]: ≤ 0.0625 µg/mL
MIC [5]: ≤ 0.0625 µg/mL

COc1ccc2nccc(C(O)CC[C@@H]3CCN(C4CN(C5CCCC5)C4)C[C@@H]3C(=O)O)c2c1 (stereo partly drawn) [Example 132, (3R,4R)-1-(1-cyclopentylazetidin-3-yl)-4-[3-hydroxy-3-(6-methoxyquinolin-4-yl)propyl]piperidine-3-carboxylic acid]
MIC [1]: > 64 µg/mL
MIC [2]: > 64 µg/mL
MIC [3]: > 64 µg/mL
MIC [4]: > 64 µg/mL
MIC [5]: > 64 µg/mL

COc1ccc2nccc([C@@H](O)CC[C@@H]3CCN(C4CC(c5cccc(C#N)c5)C4)C[C@@H]3C(=O)O)c2c1 (stereo partly drawn) [Example 226, (3R,4R)-1-(3-(3-cyanophenyl)cyclobutyl)-4-((S)-3-hydroxy-3-(6-methoxyquinolin-4-yl)propyl)piperidine-3-carboxylic acid]
MIC, column C [1]: 32 µg/mL (≈ 64 µM)
MIC, column D [2]: 4 µg/mL (≈ 8.01 µM)
MIC, column A [3]: 16 µg/mL (≈ 32 µM)
MIC, column B [4]: 4 µg/mL (≈ 8.01 µM)
MIC, column E [5]: 8 µg/mL (≈ 16 µM)

COc1ccc2nccc(C(=O)CC[C@@H]3CCN(C4CC(c5ccccc5)C4)C[C@@H]3C(=O)O)c2c1 (stereo partly drawn) [Example 135, (3R,4R)-4-[3-(6-Methoxy-quinolin-4-yl)-3-oxo-propyl]-1-(3-phenyl-cyclobutyl)-piperidine-3-carboxylic acid]
MIC [1]: 8 µg/mL (≈ 16.9 µM)
MIC [2]: 0.125 µg/mL (≈ 0.265 µM)
MIC [3]: 0.25 µg/mL (≈ 0.529 µM)
MIC [4]: 0.25 µg/mL (≈ 0.529 µM)
MIC [5]: 0.25 µg/mL (≈ 0.529 µM)

COc1ccc2ncc(Cl)c(CCNC3(C(=O)O)CCCN(C4CC(c5cccc(F)c5)C4)CC3)c2c1 (centres unmarked) [Example 155, 4-{[2-(3-chloro-6-methoxyquinolin-4-yl)ethyl]amino}-1-[3-(3-fluorophenyl)cyclobutyl] azepane-4-carboxylic acid]
MIC [1]: 4 µg/mL (≈ 7.6 µM)
MIC [2]: 0.25 µg/mL (≈ 0.475 µM)
MIC [3]: 1 µg/mL (≈ 1.9 µM)
MIC [4]: 0.125 µg/mL (≈ 0.238 µM)
MIC [5]: 0.125 µg/mL (≈ 0.238 µM)

COc1ccc2nccc(C(O)CC[C@@H]3CCN(C4CC(c5cc(F)ccc5F)C4)C[C@@H]3C(=O)O)c2c1 (stereo partly drawn) [Example 38, (3R,4R)-1-[3-(2,5-difluorophenyl)cyclobutyl]-4-[3-hydroxy-3-(6-methoxyquinolin-4-yl)propyl] piperidine-3-carboxylic acid]
MIC [1]: 4 µg/mL (≈ 7.83 µM)
MIC [2]: 0.125 µg/mL (≈ 0.245 µM)
MIC [3]: 0.25 µg/mL (≈ 0.49 µM)
MIC [4]: 0.125 µg/mL (≈ 0.245 µM)
MIC [5]: 0.125 µg/mL (≈ 0.245 µM)

COc1ccc2nccc(C(O)CC[C@@H]3CCN(C4CC(CC5CCOC5)C4)C[C@@H]3C(=O)O)c2c1 (stereo partly drawn) [Example 51, (3R,4R)-4-[3-hydroxy-3-(6-methoxyquinolin-4-yl)propyl]-1-[3-(tetrahydrofuran-3-ylmethyl)cyclobutyl]piperidine-3-carboxylic acid]
MIC [1]: 16 µg/mL (≈ 33.2 µM)
MIC [2]: 16 µg/mL (≈ 33.2 µM)
MIC [3]: 32 µg/mL (≈ 66.3 µM)
MIC [4]: 16 µg/mL (≈ 33.2 µM)
MIC [5]: 8 µg/mL (≈ 16.6 µM)

COc1ccc2ncc(Cl)c(CCCC3(C(=O)O)CCN(C4CC(c5ccccc5)C4)CC3)c2c1 (centres unmarked) [Example 108, 4-[3-(3-chloro-6-methoxyquinolin-4-yl)propyl]-1-(3-phenylcyclobutyl)piperidine-4-carboxylic acid]
MIC [1]: 64 µg/mL (≈ 130 µM)
MIC [2]: ≤ 0.0625 µg/mL
MIC [3]: ≤ 0.0625 µg/mL
MIC [4]: ≤ 0.0625 µg/mL
MIC [5]: ≤ 0.0625 µg/mL

COc1ccc2nccc(C(O)CC[C@@H]3CCN(C4CC(c5cc(C)sn5)C4)C[C@@H]3C(=O)O)c2c1 (stereo partly drawn) [Example 22, (3R,4R)-4-[3-hydroxy-3-(6-methoxyquinolin-4-yl)propyl]-1-[3-(5-methylisothiazol-3-yl)cyclobutyl] piperidine-3-carboxylic acid]
MIC [1]: 8 µg/mL (≈ 16.1 µM)
MIC [2]: 1 µg/mL (≈ 2.02 µM)
MIC [3]: 4 µg/mL (≈ 8.07 µM)
MIC [4]: 1 µg/mL (≈ 2.02 µM)
MIC [5]: 2 µg/mL (≈ 4.04 µM)

COc1ccc2ncc(Cl)c(C(O)CC[C@@H]3CCN(C4CC(c5ccccc5)C4)C[C@@H]3C(=O)O)c2c1 (stereo partly drawn) [Example 211, (3R,4R)-4-[3-(3-chloro-6-methoxyquinolin-4-yl)-3-hydroxypropyl]-1-(3-phenylcyclobutyl)piperidine-3-carboxylic acid]
MIC, column C [1]: 0.250 µg/mL (≈ 0.491 µM)
MIC, column D [2]: <0.0625 µg/mL
MIC, column A [3]: <0.0625 µg/mL
MIC, column B [4]: <0.0625 µg/mL
MIC, column E [5]: <0.0625 µg/mL

COc1ccc2nccc(C(O)CC[C@@H]3CCN(C4CC(c5cccc(F)c5F)C4)C[C@@H]3C(=O)O)c2c1 (stereo partly drawn) [Example 36, (3R,4R)-1-[3-(2,3-difluorophenyl)cyclobutyl]-4-[3-hydroxy-3-(6-methoxyquinolin-4-yl)propyl] piperidine-3-carboxylic acid]
MIC [1]: 2 µg/mL (≈ 3.92 µM)
MIC [2]: ≤ 0.0625 µg/mL
MIC [3]: 0.125 µg/mL (≈ 0.245 µM)
MIC [4]: ≤ 0.0625 µg/mL
MIC [5]: ≤ 0.0625 µg/mL

COc1ccc2nccc(C(O)CC[C@@H]3CCN(C4CC(O)(c5ccccc5)C4)C[C@@H]3C(=O)O)c2c1 (stereo partly drawn) [Example 94, (3R,4R)-4-[3-hydroxy-3-(6-methoxyquinolin-4-yl)propyl]-1-(3-hydroxy-3-phenylcyclobutyl)piperidine-3-carboxcylic acid]
MIC, column C [1]: >64 µg/mL
MIC, column D [2]: >64 µg/mL
MIC, column A [3]: >64 µg/mL
MIC, column B [4]: 32 µg/mL (≈ 65.2 µM)
MIC, column E [5]: >64 µg/mL

COc1ccc2nccc([C@@H](O)CC[C@@H]3CCN(C4CC(c5cc(F)ccc5F)C4)C[C@@H]3C(=O)O)c2c1 (stereo partly drawn) [Example 40, (3R,4R)-1-[3-(2,5-difluorophenyl)cyclobutyl]-4-[(3S)-3-hydroxy-3-(6-methoxyquinolin-4-yl)propyl] piperidine-3-carboxylic acid]
MIC [1]: 1.26 µg/mL (≈ 2.47 µM)
MIC [2]: ≤ 0.0625 µg/mL
MIC [3]: 0.125 µg/mL (≈ 0.245 µM)
MIC [4]: ≤ 0.0625 µg/mL
MIC [5]: ≤ 0.0625 µg/mL

COc1ccc2nccc([C@@H](O)CC[C@@H]3CCN(C4CC(c5cccc(Cl)c5F)C4)C[C@@H]3C(=O)O)c2c1 (stereo partly drawn) [Example 64, (3R,4R)-1-[3-(3-chloro-2-fluorophenyl)cyclobutyl]-4-[(3S)-3-hydroxy-3-(6-methoxyquinolin-4-yl)propyl]piperidine-3-carboxylic acid]
MIC [1]: 8 µg/mL (≈ 15.2 µM)
MIC [2]: ≤ 0.0625 µg/mL
MIC [3]: ≤ 0.0625 µg/mL
MIC [4]: ≤ 0.0625 µg/mL
MIC [5]: ≤ 0.0625 µg/mL
